These results are taken from patent US5525623A, “Compositions and methods for the treatment of immunomediated inflammatory disorders” (Arris Pharmaceutical Corporation, priority 1994, dated 1996).

A word on the Ki: it is the dissociation constant of the complex between target and ligand, obtained from inhibition or displacement.

The target in test [1] is T1, Tryptase (Homo sapiens, UniProt Q15661). Put plainly: In Vitro Tryptase Inhibition Assay (hydrolysis of tosyl-GlyProLys-p-nitroanilide, Tris-HCl pH 8.2). The class given is biochemical. The protocol:
Table II lists the inhibition constants (Ki ', micromolar (μM)) which were determined for several of the compounds of the present invention, wherein R^1 is hydrogen; R^2 is hydrogen; R^3 is --(CH2)3 --NH--(C=NH)--NH2; R^4 and R^5, together with the nitrogen and carbon to which they are attached form a five-membered heterocycle; and R^6 is hydrogen. […] Unlike Ki, Ki ' may not be a true dissociation constant of the enzyme-inhibitor complex; Ki ' is equal to Ki for a noncompetitive inhibitor and is directly proportional to Ki for competitive and uncompetitive inhibitors.
Generally, the assay conditions are light sensitive and variations in ambient light intensity may affect assay reproducibility. As a result of this potential source of error, some assays were run under dark conditions. The Ki 's reported in Tables II and III without parentheses were determined under conditions of ambient light. Ki 's reported with parentheses were determined under "dark" conditions as defined above.

Test [2] has as its system allergic sheep. Nature of the test: Allergic sheep model of asthma: specific lung resistance (SRL) after antigen challenge. The class given is in vivo. Particulars: 9 mg aerosol 0.5 h before, 4 h and 24 h after antigen challenge. The procedure:
(§1) The initial asthmatic response can be evaluated in guinea pigs, and dogs, and particularly, with a basenji-greyhound cross strain which develops nonspecific airway hyperresponsiveness to numerous nonallergenic substances, such as methacholine and citric acid. […] In dual responding animals, the initial asthmatic response (IAR) is followed by a late asthmatic response (LAR) at 6-8 hours post-exposure.
(§2) The allergic sheep model was used to evaluate the potential antiasthmatic effects of the compounds of the present invention.
(§3) The allergic sheep model of asthma was employed in these studies. These methods have been published previously (see Abraham et al. (1983) Am. Rev. Respir. Dis. 128:839-844; Allegra et al. (1983) J. Appl. Physiol. 55:726-730; Russi et al. (1985) J. Appl. Physiol. 59:1416-1422; Soler et al. ((1989) J. Appl. Physiol. 67:406-413. Each sheep served as its own control. Body weights for these animals ranged from 20-50 kilograms.
(§4) In these studies, 9 mg of Compound 3 of Tables I and II was dissolved in 3 mL buffered saline and the total solution delivered as an aerosol 0.5 hours before, 4 hours after, and 24 hours after antigen challenge (total dose=27; n=6). In the control (vehicle only) trial, antigen challenge caused peak early and late increases above baseline in specific lung resistance (SRL) of 374±104% and 212±21% (mean±SE). In contrast, when the sheep were treated with Compound 3 of Tables I and II, the early and late increases in SRL were 280±39% and 72±9% (p <0.05 vs. control, Wilcoxon signed rank test). The peak early response was taken as the average of the maximum values occurring immediately post-challenge. Peak late responses were calculated by averaging the maximum response values obtained for each animal within the 6-8 hour time period. This approach is conservative and eliminates the possible reduction in the late response due simply to averaging.

The target of test [3] is T1, Tryptase. Put plainly: biochemical. Particulars: for Ki: Table IV. The protocol: Compounds (approx. 1 mg) to be assayed against tryptase were reconstituted in dimethylsulfoxide (DMSO) and diluted 1:10 into buffer containing 50 millimolar (mM) Tris-HCl at pH 8.2, and containing 100 mM NaCl, 0.05% Tween-20. Seven additional 3-fold dilutions were made from the initial dilution into the same buffer supplemented with 10% DMSO. Aliquots (50 μl) from each of the eight dilutions in the series were transferred to individual wells in a 96-well U-bottom microtiter plate. Tryptase (25 μl; 0.5 nM final concentration) was added to each well and the samples were mixed and incubated for 1 hr at room temperature under either ambient light (i.e., the light available in the room during the experiment) or under controlled "light" or "dark" conditions. "Light conditions" refers herein to a light intensity of 400-450 footcandles from a fluorescent bulb. "Dark" refers herein to sample containers wrapped in aluminum foil. The enzyme reaction was then initiated with the addition of the synthetic tripeptide substrate, tosyl-GlyProLys-p-nitroanilide (25 μl; 0.5 mM final concentration). The microtiter plates were immediately transferred to a UV/MAX Kinetic Microplate Reader (Molecular Devices) and hydrolysis of the chromogenic substrate was followed spectrophotometrically at […] for 5 minutes. […] Initial velocity measurements, calculated from progress curves by a kinetic analysis program called "BatchKi" (available commercially from Biokin Ltd., of Madison Wis.), were used to determine apparent inhibition constants for each inhibitor. This program is designed to perform regressions and curve-fitting of non-linear data.
Compound 3 was assayed against tryptase at four different pH's in the following buffer system: 120 mM NaCl, 2.7 mM KCl, 0.13 mM NaH2 PO4, 0.896 mM Na2 HPO4. The final buffer system used included 0.05% of Tween-20.
Thus, the assay procedure described above was performed wherein the dilution of Compound 3 and the addition of tryptase was done under ambient light at room temperature (22°-26° C.). The assay plate was wrapped in aluminum foil for a 1-hr incubation before substrate addition, which was also done under ambient light.

The test system of test [4] is allergic sheep. Nature of the test: Allergic sheep model: airway hyperresponsiveness to carbachol (PC400) 24 hours after antigen challenge. It counts as in vivo. The protocol: as §1, §2, §3, §4
Twenty-four hours after antigen challenge in both the control and drug trial, the sheep developed airway hyperresponsiveness. […] Baseline PC400 was 22.0±3.7 breath units in the control trial, falling to 9.1±1.3 breath units after antigen challenge (p<0.05 vs. baseline).

Setting [5] is: Table III, asterisk: "light" conditions, 400-450 footcandles.
[6] abbreviates: Table III, parentheses: "dark" conditions (aluminum foil).
Where [7] appears, read: Table II, ambient light (no parentheses).
The mark [8] stands for this setting: Table II, asterisk: "light" conditions, 400-450 footcandles.
Setting [9] is: Table II, parentheses: "dark" conditions (aluminum foil).

T1 sequence (Q15661 31-275): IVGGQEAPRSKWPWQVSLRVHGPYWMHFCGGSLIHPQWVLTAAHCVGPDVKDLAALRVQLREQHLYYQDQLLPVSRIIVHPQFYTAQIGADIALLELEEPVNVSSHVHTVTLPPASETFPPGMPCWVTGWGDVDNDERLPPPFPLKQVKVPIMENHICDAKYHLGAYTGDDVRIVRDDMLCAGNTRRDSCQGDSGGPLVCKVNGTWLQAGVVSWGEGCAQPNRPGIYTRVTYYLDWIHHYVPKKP

`CN(CC(N)=O)C(=O)[C@H](CCCNC(=N)N)NC(=O)c1c(O)ccc2ccccc12` [Compound 1]: the Ki in test [1] (setting [5]) worked out at 3 µM; in test [1] (setting [6]), 637 µM.

For the compound `Cc1ccc(C(=O)N[C@@H](CCCNC(=N)N)C(=O)N2CCC[C@H]2C(N)=O)c(O)c1` [Compound 2], the Ki in test [1] (setting [7]) is above 500 µM.

Regarding `N=C(N)NCCC[C@H](NC(=O)c1ccc2ccccc2c1O)C(=O)N1CCC[C@H]1C(N)=O` [Compound 3, 1-hydroxy-2-naphthoyl-L-arginyl-L-proline amide], the “effect on early response” value in test [2] was “exhibited a tendency to reduce the early response”. Besides, in test [2] (FIG. 1), the “effect on late response” value is reported as “attenuated the late response”. For the same compound, the “late increase in SRL (peak late response above baseline, 6-8 hours)” value in test [2] (n=6, mean±SE, control 212±21%, p <0.05 vs. control) is 72±9%. The “early increase in SRL (peak early response above baseline)” value in test [2] (n=6, mean±SE, control 374±104%) stood at 280±39%. Moreover, the “sensitivity to light in the buffer system” value in test [3] (120 mM NaCl, 2.7 mM KCl, 0.13 mM NaH2PO4, 0.896 mM Na2HPO4, 0.05% Tween-20, pH 7.5) is “less sensitive to light”. For the same compound, the Ki in test [3] (pH 6.5) came to 14 µM; in test [3] (pH 7.0) it was 8 µM; in test [3] (pH 7.5), 5.4 µM; in test [3] (pH 8.0) it was 6.1 µM; in test [1] (setting [8]) it was 0.3 µM; in test [1] (setting [9]), 82 µM. In addition, the “effect on 24 hour hyperresponsiveness” value in test [4] (24 h after antigen challenge, FIG. 2) is on record as “blocked the 24 hour hyperresponsiveness”. The “PC400, after antigen challenge” value in test [4] (drug trial, 24 h after antigen challenge, control 9.1±1.3) turned out to be 17.6±3.5 breath units. For the same compound, the “PC400 change relative to baseline” value in test [4] (drug trial, after antigen challenge vs. baseline) was “unchanged relative to baseline”. Further, the “PC400, baseline” value in test [4] (drug trial, baseline (before antigen challenge), control baseline 22.0±3.7) is listed as 16.0±3.8 breath units. For the same compound, in test [4] (treatment with Compound 3, allergen challenged sheep), the “airway function in allergen challenged sheep” value was “statistically significant improvement in airway function”.

On to `COC(=O)[C@@H]1C[C@@H](O)CN1C(=O)[C@H](CCCNC(=N)N)NC(=O)c1c(O)ccc2ccccc12` [Compound 4], for which the Ki in test [1] (Table III, ambient light (no parentheses)) turned out to be 749 µM.

Turning to `CN(C)C(=O)[C@@H]1CCCN1C(=O)[C@H](CCCNC(=N)N)NC(=O)c1c(O)ccc2ccccc12` [Compound 5], the Ki in test [1] (setting [7]) was determined as 15 µM.

For the compound `N=C(N)NCCC[C@H](NC(=O)c1ccc2ccccc2c1O)C(=O)N1CCC[C@H]1C(=O)N1CCCC(C(N)=O)C1` (stereo partly shown) [Compound 6], in test [1] (setting [7]), the Ki was determined as 82 µM.

Regarding `N=C(N)NCCC[C@H](NC(=O)c1ccc2ccccc2c1O)C(=O)N1CCC[C@H]1C(=O)N1CCC(C(N)=O)CC1` [Compound 7], the Ki in test [1] (setting [7]) stood at 664 µM.

With `COC(=O)[C@@H]1CCCN1C(=O)[C@H](CCCNC(=N)N)NC(=O)c1c(O)ccc2ccccc12` [Compound 8], the Ki in test [1] (setting [7]) was 208 µM.

Consider `N=C(N)NCCC[C@H](NC(=O)c1nc2ccccc2nc1O)C(=O)N1CCC[C@H]1C(N)=O` [Compound 9], for which the results for the Ki in test [1] (setting [8]) and in test [1] (setting [9]) were 23 µM and 56 µM, respectively.

As for `N=C(N)Nc1ccc(C[C@H](NC(=O)c2ccc3ccccc3c2O)C(=O)N2CCC[C@H]2C(N)=O)cc1` [Compound 10], the Ki is 2.5 µM in test [1] (setting [5]) and 18 µM in test [1] (setting [6]).

`N=C(N)NCCC[C@H](NC(=O)c1ccc2ccccc2c1O)C(=O)N1C[C@H](O)C[C@H]1C(N)=O` [Compound 11]: the Ki in test [1] (setting [5]) amounted to 0.3 µM; in test [1] (setting [6]) it was 40 µM.

Take `N=C(N)NCCC[C@H](NC(=O)c1ccc2ccccc2c1O)C(=O)N1CCC[C@@H]1C(N)=O` [Compound 12]: the Ki in test [1] (setting [5]) was found to be 2.5 µM; in test [1] (setting [6]), 818 µM.

For `N=C(N)NCCC[C@H](NC(=O)c1ccc2ccccc2c1O)C(=O)N1CCC[C@H]1C(=O)N[C@@H](Cc1ccccc1)C(N)=O` [Compound 13], the Ki in test [1] (setting [8]) worked out at 0.6 µM; in test [1] (setting [9]), 110 µM.

Consider `N=C(N)NCCC[C@H](NC(=O)c1cc2ccccc2cc1O)C(=O)N1CCC[C@H]1C(N)=O` [Compound 14], for which the inhibition constant (Ki) in test [1] (setting [8]) was determined as 752 µM; in test [1] (setting [9]) it was 707 µM.

Take `N=C(N)NCCC[C@H](NC(=O)c1c(O)ccc2ccccc12)C(=O)N1CCC[C@H]1C(N)=O` [Compound 15]: the Ki in test [1] (setting [7]) amounted to 0.84 µM.

For the compound `N=C(N)NCCC[C@H](NC(=O)c1ncccc1O)C(=O)N1CCC[C@H]1C(N)=O` [Compound 16], the figures for the Ki in test [1] (setting [8]) and in test [1] (setting [9]) were 8 µM and 63 µM, respectively.

Turning to `Cc1ccc2c(O)c(C(=O)N[C@@H](CCCNC(=N)N)C(=O)N3CCC[C@H]3C(N)=O)cnc2n1` [Compound 17], in test [1] (setting [7]), the Ki turned out to be 900 µM.

Consider `N=C(N)NCCC[C@H](NC(=O)c1cccnc1O)C(=O)N1CCC[C@H]1C(N)=O` [Compound 18], for which the inhibitory constant (Ki) in test [1] (setting [7]) amounted to 452 µM.

Turning to `N=C(N)NCCC[C@H](NC(=O)c1ccccc1O)C(=O)N1CCC[C@H]1C(N)=O` [Compound 19], the figures for the Ki in test [1] (setting [8]) and in test [1] (setting [9]) were 8 µM and 2450 µM, respectively.

`N=C(N)NCCC[C@H](NC(=O)c1cc(O)ccc1O)C(=O)N1CCC[C@H]1C(N)=O` [Compound 20]: in test [1] (setting [7]), the Ki amounted to 20 µM.

Take `N=C(N)NCCC[C@H](NC(=O)c1cc(-c2ccccc2)ccc1O)C(=O)N1CCC[C@H]1C(N)=O` [Compound 21]: the Ki came out at 18 µM in test [1] (setting [8]) and 149 µM in test [1] (setting [9]).
